In the NIST ThermoML archive (doi:10.1016/j.fluid.2012.09.026):
Numbers after ± are expanded uncertainties.

How the values were obtained:
[1] = molar heat capacity at constant volume; conditions: Vacuum adiabatic calorimetry

SMILES: CCCCO [butan-1-ol]
- mass density (563.04 K, 4340 kPa, Gas, isochoric method): 203.9 ± 2.5 kg/m3
- mass density (563.04 K, Liquid, Isochoric Breaking Point): 270 ± 1.3 kg/m3
- mass density (564.02 K, 4461 kPa, Liquid, isochoric method): 270 ± 0.8 kg/m3
- mass density (565.29 K, 4559 kPa, Liquid, isochoric method): 345.9 ± 1.8 kg/m3
- mass density (568.44 K, 4598 kPa, Gas, isochoric method): 203.9 ± 4 kg/m3
- mass density (569.15 K, 4559 kPa, Gas, isochoric method): 167.7 ± 4 kg/m3
- mass density (569.8 K, 4775 kPa, Liquid, isochoric method): 270 ± 2.9 kg/m3
- mass density (572.54 K, 5138 kPa, Liquid, isochoric method): 345.9 ± 2.6 kg/m3
- mass density (574.48 K, 4178 kPa, Gas, isochoric method): 113.76 ± 0.56 kg/m3
- mass density (577.73 K, 5059 kPa, Gas, isochoric method): 203.9 ± 0.9 kg/m3
- mass density (580.8 K, 5000 kPa, Gas, isochoric method): 167.7 ± 0.8 kg/m3
- mass density (582.21 K, 5647 kPa, Liquid, isochoric method): 270 ± 1.4 kg/m3
- mass density (583.19 K, 6118 kPa, Liquid, isochoric method): 345.9 ± 1.1 kg/m3
- mass density (584.19 K, 10275 kPa, Liquid, isochoric method): 470 ± 1.2 kg/m3
- mass density (588.79 K, 5613 kPa, Gas, isochoric method): 203.9 ± 0.7 kg/m3
- mass density (590.87 K, 4586 kPa, Gas, isochoric method): 113.76 ± 0.43 kg/m3
- mass density (593.16 K, 5452 kPa, Gas, isochoric method): 167.7 ± 0.5 kg/m3
- mass density (593.16 K, 6393 kPa, Liquid, isochoric method): 270 ± 0.7 kg/m3
- mass density (600.42 K, 6162 kPa, Gas, isochoric method): 203.9 ± 0.7 kg/m3
- mass density (604.17 K, 5852 kPa, Gas, isochoric method): 167.7 ± 0.5 kg/m3
- mass density (605.17 K, 4925 kPa, Gas, isochoric method): 113.76 ± 0.39 kg/m3
- mass density (605.88 K, 7197 kPa, Liquid, isochoric method): 270 ± 0.9 kg/m3
- mass density (606.77 K, 8197 kPa, Liquid, isochoric method): 345.9 ± 1.1 kg/m3
- mass density (614.97 K, 6834 kPa, Gas, isochoric method): 203.9 ± 0.6 kg/m3
- mass density (616.27 K, 6275 kPa, Gas, isochoric method): 167.7 ± 0.5 kg/m3
- mass density (616.28 K, 5197 kPa, Gas, isochoric method): 113.76 ± 0.38 kg/m3
- molar heat capacity at constant volume ([1]; 520 K, Gas, Specific volume=0.016529 m3/kg): 236.45 ± 14 J/K/mol
- molar heat capacity at constant volume ([1]; 520 K, Liquid, Specific volume=0.001879 m3/kg): 220.88 ± 13 J/K/mol
- molar heat capacity at constant volume ([1]; 530 K, Gas, Specific volume=0.013513 m3/kg): 243.12 ± 15 J/K/mol
- molar heat capacity at constant volume ([1]; 530 K, Liquid, Specific volume=0.001974 m3/kg): 220.22 ± 13 J/K/mol
- molar heat capacity at constant volume ([1]; 533.45 K, Gas, Specific volume=0.012425 m3/kg): 246.16 ± 15 J/K/mol
- molar heat capacity at constant volume ([1]; 533.45 K, Liquid, Specific volume=0.002001 m3/kg): 220.22 ± 13 J/K/mol
- molar heat capacity at constant volume ([1]; 540 K, Gas, Specific volume=0.010776 m3/kg): 252.01 ± 15 J/K/mol
- molar heat capacity at constant volume ([1]; 540 K, Liquid, Specific volume=0.002103 m3/kg): 220.14 ± 13 J/K/mol
- molar heat capacity at constant volume ([1]; 550 K, Gas, Specific volume=0.008333 m3/kg): 260.91 ± 16 J/K/mol
- molar heat capacity at constant volume ([1]; 550 K, Liquid, Specific volume=0.002288 m3/kg): 220.88 ± 13 J/K/mol
- molar heat capacity at constant volume ([1]; 560 K, Gas, Specific volume=0.005682 m3/kg): 281.74 ± 17 J/K/mol
- molar heat capacity at constant volume ([1]; 560 K, Liquid, Specific volume=0.002717 m3/kg): 228.37 ± 14 J/K/mol
- molar heat capacity at constant volume ([1]; 561 K, Gas, Specific volume=0.005319 m3/kg): 286.85 ± 17 J/K/mol
- molar heat capacity at constant volume ([1]; 561 K, Liquid, Specific volume=0.002792 m3/kg): 235.71 ± 14 J/K/mol
- molar heat capacity at constant volume ([1]; 562 K, Gas, Specific volume=0.004879 m3/kg): 294.26 ± 18 J/K/mol
- molar heat capacity at constant volume ([1]; 562 K, Liquid, Specific volume=0.002985 m3/kg): 247.57 ± 15 J/K/mol
- molar heat capacity at constant volume ([1]; 563 K, Gas, Specific volume=0.0046 m3/kg): 303.9 ± 18 J/K/mol
- molar heat capacity at constant volume ([1]; 563 K, Liquid, Specific volume=0.003108 m3/kg): 258.68 ± 15 J/K/mol
- molar heat capacity at constant volume ([1]; 563.21 K, Fluid (supercritical or subcritical phases), Mass density=270 kg/m3): 356.16 ± 22 J/K/mol
- molar heat capacity at constant volume ([1]; 563.39 K, Fluid (supercritical or subcritical phases), Mass density=270 kg/m3): 317.24 ± 19 J/K/mol
- molar heat capacity at constant volume ([1]; 563.57 K, Fluid (supercritical or subcritical phases), Mass density=270 kg/m3): 306.86 ± 18 J/K/mol
- molar heat capacity at constant volume ([1]; 564.81 K, Fluid (supercritical or subcritical phases), Mass density=270 kg/m3): 294.63 ± 18 J/K/mol
- molar heat capacity at constant volume ([1]; 564.99 K, Fluid (supercritical or subcritical phases), Mass density=270 kg/m3): 292.04 ± 18 J/K/mol
- molar heat capacity at constant volume ([1]; 565.17 K, Fluid (supercritical or subcritical phases), Mass density=270 kg/m3): 290.19 ± 17 J/K/mol
- molar heat capacity at constant volume ([1]; 566.6 K, Fluid (supercritical or subcritical phases), Mass density=270 kg/m3): 282.4 ± 17 J/K/mol
- molar heat capacity at constant volume ([1]; 566.77 K, Fluid (supercritical or subcritical phases), Mass density=270 kg/m3): 280.18 ± 17 J/K/mol
- molar heat capacity at constant volume ([1]; 566.95 K, Fluid (supercritical or subcritical phases), Mass density=270 kg/m3): 279.81 ± 17 J/K/mol
- molar heat capacity at constant volume ([1]; 567.13 K, Fluid (supercritical or subcritical phases), Mass density=270 kg/m3): 277.59 ± 17 J/K/mol
- molar heat capacity at constant volume ([1]; 569.09 K, Fluid (supercritical or subcritical phases), Mass density=270 kg/m3): 269.8 ± 16 J/K/mol
- molar heat capacity at constant volume ([1]; 569.26 K, Fluid (supercritical or subcritical phases), Mass density=270 kg/m3): 269.06 ± 16 J/K/mol
- molar heat capacity at constant volume ([1]; 569.44 K, Fluid (supercritical or subcritical phases), Mass density=270 kg/m3): 268.32 ± 16 J/K/mol
- molar heat capacity at constant volume ([1]; 573.52 K, Fluid (supercritical or subcritical phases), Mass density=270 kg/m3): 259.06 ± 16 J/K/mol
- molar heat capacity at constant volume ([1]; 573.67 K, Fluid (supercritical or subcritical phases), Mass density=270 kg/m3): 257.94 ± 15 J/K/mol
- molar heat capacity at constant volume ([1]; 582.51 K, Fluid (supercritical or subcritical phases), Mass density=270 kg/m3): 246.83 ± 15 J/K/mol
- molar heat capacity at constant volume ([1]; 582.69 K, Fluid (supercritical or subcritical phases), Mass density=270 kg/m3): 246.08 ± 15 J/K/mol
- molar heat capacity at constant volume ([1]; 582.86 K, Fluid (supercritical or subcritical phases), Mass density=270 kg/m3): 246.08 ± 15 J/K/mol
- molar heat capacity at constant volume ([1]; 583.22 K, Fluid (supercritical or subcritical phases), Mass density=270 kg/m3): 245.34 ± 15 J/K/mol
- molar heat capacity at constant volume ([1]; 590.92 K, Fluid (supercritical or subcritical phases), Mass density=270 kg/m3): 240.15 ± 14 J/K/mol
- molar heat capacity at constant volume ([1]; 591.07 K, Fluid (supercritical or subcritical phases), Mass density=270 kg/m3): 240.52 ± 14 J/K/mol
- molar heat capacity at constant volume ([1]; 591.23 K, Fluid (supercritical or subcritical phases), Mass density=270 kg/m3): 239.41 ± 14 J/K/mol
- molar heat capacity at constant volume ([1]; 591.62 K, Fluid (supercritical or subcritical phases), Mass density=270 kg/m3): 239.41 ± 14 J/K/mol
- molar heat capacity at constant volume ([1]; 598.76 K, Fluid (supercritical or subcritical phases), Mass density=270 kg/m3): 235.34 ± 14 J/K/mol
- molar heat capacity at constant volume ([1]; 599.1 K, Fluid (supercritical or subcritical phases), Mass density=270 kg/m3): 236.08 ± 14 J/K/mol
- molar heat capacity at constant volume ([1]; 599.28 K, Fluid (supercritical or subcritical phases), Mass density=270 kg/m3): 235.71 ± 14 J/K/mol
- molar heat capacity at constant volume ([1]; 599.63 K, Fluid (supercritical or subcritical phases), Mass density=270 kg/m3): 234.97 ± 14 J/K/mol
- molar heat capacity at constant volume ([1]; 605.17 K, Fluid (supercritical or subcritical phases), Mass density=270 kg/m3): 232.74 ± 14 J/K/mol
- molar heat capacity at constant volume ([1]; 605.35 K, Fluid (supercritical or subcritical phases), Mass density=270 kg/m3): 232.37 ± 14 J/K/mol
- molar heat capacity at constant volume ([1]; 606.21 K, Fluid (supercritical or subcritical phases), Mass density=270 kg/m3): 232 ± 14 J/K/mol
- molar heat capacity at constant volume ([1]; 606.56 K, Fluid (supercritical or subcritical phases), Mass density=270 kg/m3): 232 ± 14 J/K/mol
- molar heat capacity at constant volume ([1]; 609.49 K, Fluid (supercritical or subcritical phases), Mass density=270 kg/m3): 231.26 ± 14 J/K/mol
- molar heat capacity at constant volume ([1]; 609.67 K, Fluid (supercritical or subcritical phases), Mass density=270 kg/m3): 230.52 ± 14 J/K/mol
- molar heat capacity at constant volume ([1]; 609.84 K, Fluid (supercritical or subcritical phases), Mass density=270 kg/m3): 230.89 ± 14 J/K/mol
- molar heat capacity at constant volume ([1]; 621.18 K, Fluid (supercritical or subcritical phases), Mass density=270 kg/m3): 227.55 ± 14 J/K/mol
- molar heat capacity at constant volume ([1]; 621.53 K, Fluid (supercritical or subcritical phases), Mass density=270 kg/m3): 226.81 ± 14 J/K/mol
- molar heat capacity at constant volume ([1]; 622.22 K, Fluid (supercritical or subcritical phases), Mass density=270 kg/m3): 226.07 ± 14 J/K/mol
- molar heat capacity at constant volume ([1]; 637.42 K, Fluid (supercritical or subcritical phases), Mass density=270 kg/m3): 225.33 ± 14 J/K/mol
- molar heat capacity at constant volume ([1]; 637.77 K, Fluid (supercritical or subcritical phases), Mass density=270 kg/m3): 223.11 ± 13 J/K/mol
